Assay results published in patent US20250146022A1, “STABILISING THE HUMAN SPINDLE BY KIFC1/HSET” (MAX-PLANCK-GESELLSCHAFT ZUR FOERDERUNG DER WISSENSCHAFTEN …, priority 2021, published 2025).

System: human oocytes
Assay: Live imaging of spindle assembly and chromosome segregation in human oocytes microinjected with KIFC1/HSET (mClover3-HSET)
Assay type: cell-based
Protocol: As shown in various Figures herein and specifically referred in Example 2, the bipolar meiotic spindle is assessed or detected by fluorescence microscopy or polarized light microscopy. In practice, the oocyte is not is typically not assessed by fluorescence microscopy, when the oocyte is used for in vitro fertilization at a later stage as this would require sacrificing the oocytes for analysis. The change in probability represents a characteristic of human oocytes when KIFC1/HSET is introduced into the human oocyte. […] Similarly, it is also expected that KIFC1/HSET stabilizes the mitotic spindle in human zygotes. The skilled person is aware of how to determine the duration of spindle pole instability and is provided with further guidance in Example 2 herein. Briefly, the duration of spindle pole instability refers to the duration of excessive spindle pole remodeling after early spindle bipolarization. In the case of human oocytes, the remodeling is largely the widening or fragmentation of spindle poles, which results in apolar or multipolar spindle. The start and end points are determined from the videos based on the first and last time points in which the spindle was not bipolar.
Anaphase onset refers to the time point before chromosome separation was first observed, as defined in the inventors previous study (2). […] Thus, there was a difference of 30.6% relative to the starting percentage of 44%. In other words, the human oocytes in FIG. 8D into which KIFC1/HSET has been introduced have a 1.7 fold (75%/44%) higher probability of aligned chromosomes at anaphase onset in comparison to an oocyte without introduced KIFC1/HSET.
In general, lagging chromosomes during anaphase are known in the art and are a consequence of chromosomes or chromatids not properly separating from each other. […] Lagging chromosomes are therefore a common cause of aneuploidy. […] Specifically, 33.3% of oocytes without introduced KIFC1/HSET had no lagging: chromosomes, while 62.5% of oocytes with introduced KIFC1/HSET had no lagging chromosomes. Thus, there was a difference of 29.5% based on the starting percentage of 33%. In other words, the human oocytes in FIG. 8E into which KIFC1/HSET has been introduced have a 1.9 fold (62.5%/33.3%) higher probability of aligned chromosomes at anaphase onset in comparison to an oocyte without introduced KIFC1/HSET.
To confirm that the lack of KIFC1/HSET is a major contributor to spindle instability in human oocytes, the inventors introduced KIFC1/HSET into human oocytes in FIG. 8. To visualize the dynamics of microtubules and chromosomes using live cell imaging, human oocytes were stained with 5′-SiR-tubulin and SPY555-DNA, respectively. […] The inventors also quantified the frequency of misaligned chromosomes at anaphase onset (FIG. 8D) and lagging chromosomes (FIG. 8E) in human oocytes non-injected and injected with KIFC1/HSET. […] Together, the inventors infer that the introduction of KIFC1/HSET stabilized the meiotic spindle and reduced the risk of aneuploidy in human oocytes.
The use of unfertilized human oocytes in this study was approved by the UK's National Research Ethics Service under the REC reference 11/EE/0346 (IRAS Project ID 84952) and the Ärztekammer Niedersachsen (Ethics Committee of Lower Saxony) under the reference 15/2016. Oocytes were collected from patients who underwent ovarian stimulation for intracytoplasmic sperm injection (ICSI) as part of their assisted reproduction treatment at the Bourn Hall Clinic or Kinderwunschzentrum Göttingen or Fertility Center Berlin. Only oocytes that were immature at the time of ICSI and thus unsuitable for the procedure were used in this study. All patients gave informed consent for their surplus oocyte(s) to be used in this study. Oocytes were cultured as previously described (1). Briefly, within 3-5 h after retrieval from ovaries, oocytes were transferred into G-MOPS (Vitrolife) supplemented with 10% FBS under paraffin oil at 37° C. […]

## KIFC1/HSET: Recombinant mClover3-tagged human kinesin-14 KIFC1/HSET protein (SEQ ID NO: 1), expressed in 293 cells, microinjected into human oocytes and zygotes
62.5%/33.3%, FIG. 8E
  fold higher probability of aligned chromosomes at anaphase onset vs oocyte without introduced KIFC1/HSET (FIG. 8E, lagging chromosomes): 1.9 fold
75%/44%, FIG. 8D
  fold higher probability of aligned chromosomes at anaphase onset vs oocyte without introduced KIFC1/HSET: 1.7 fold
Based on the starting percentage of 33%
  difference in oocytes with no lagging chromosomes: 29.5%
Injected human oocytes, non-injected 2.4 h, p=0.7197, FIG. 8B
  time of early spindle bipolarization after onset of microtubule nucleation: 2.65 h
Injected human oocytes, non-injected 10.3 h, p<0.0001, FIG. 8C
  duration of spindle pole instability: 3.4 h
Oocytes with introduced KIFC1/HSET, without 33.3%, FIG. 8E
  proportion of human oocytes with no lagging chromosome: 62.5%
Oocytes with introduced KIFC1/HSET, without 44.4%, FIG. 8D
  proportion of human oocytes with aligned chromosomes at anaphase onset: 75%
Relative to the starting percentage of 44%
  difference in oocytes with aligned chromosomes at anaphase onset: 30.6%
